US7732487B2, “Method for treating a disease or condition responsive to opening of C1C-2 channel” (priority 2001, dated 2010)
Marks after values point to notes of the source that are not given here.

Key:
male Wistar rats [1] = assay: Amount of intestinal fluid and chloride ion concentration in intestinal fluid in rat; assay type: in vivo; settings: 30 minutes after administration, Mean ± S.E.
Procedure: Test substance 1: 13,14-dihydro-15-keto-16,16-difluoro-prostaglandin E1, which is a ClC-2 channel opener was used. The test substance 1 of 10 or 100 μg/kg in 5 mL/kg of the vehicle was orally administered to male Wistar rats (six weeks old, weight: 180-210 g) that had been fasted for at least 16 hours. The control group received the same volume of the vehicle (0.5% ethanol and 0.01% polysorbate 80 in distilled water). Thirty minutes after the administration, the animals underwent laparotomy under ether anesthesia. The first portion of the duodenum and end portion of the ileum were ligated respectively and the bowel was removed. The intestinal fluid of each animal was collected from the removed bowel and the amount was determined. After the intestinal fluid was centrifuged by 10,000×g for 5 minutes, its supernatant was collected. The chloride ion concentration in the supernatant was measured with a chloride counter (CL-7, Hiranuma Sangyo Co., Ltd.). Dunnett's test was used in comparing the control group and the test groups receiving test substance 1 in each dose. P values less than 0.05 were considered to be statistically significant.

male white rabbit = assay: Amount of lacrimal fluid and chloride ion concentration in lacrimal fluid in rabbit; assay type: in vivo; settings: 0.001% eye drop, 30 μL/eye, two hours after instillation, Mean ± S.E.
Procedure: An eye drop composition comprising 0.001% of the test substance 1 was instilled to male white rabbit in the amount of 30 μL/eye. The control group received the same amount of eye drop vehicle. […] Then the amount of lacrimal fluid was measured from the length of wetting area on the paper filter with the scale on it. […] The collected lacrimal fluid was diluted five fold with distilled water and chloride ion concentration in the lacrimal fluid was measured with a chloride counter (CL-7, Hiranuma Sangyo Co. Ltd., Japan). Student's t-test and Wilcoxon's test were used in comparing the control group and the group receiving test substance 1. P values less than 0.05 were considered to be statistically significant.

ddY male mice = assay: Antianoxia effect: duration of gasping after beheading in mice; assay type: in vivo, mouse; settings: 0.3 mg/kg subcutaneous, 30 minutes before beheading, Mean ± S.D.
Procedure: Test substance 1 of 0.3 mg/kg in 10 mL/kg of vehicle was subcutaneously administered to ddY male mice (5 weeks old, weight: 27-30 g). The control group received the vehicle. Thirty minutes after the administration, the mice were beheaded with guillotine. Duration of gasping shown after beheading was measured.

male Wistar rats [2] = assay: Antipneumonedema effect, ammonium sulfate induced, in rats; assay type: in vivo, rat
Procedure: Test substance 1 of 0.1 or 0.01 mg/kg in 5 mL/kg of vehicle was subcutaneously administered to male Wistar rats (7 weeks old, weight: 200-250 g). The control group received the same amount of the vehicle (physiological Saline). Thirty minutes after the administration, ammonium sulfate […] was administered to the abdominal cavity of the rats. The survival rate at 30 minutes after the administration of ammonium sulfate was calculated. Animals that had survived until 30 minutes after the administration of ammonium sulfate were killed under chloroform, and their lungs were removed to measure the weights. Regarding animals that had been dead by 30 minutes after the administration of ammonium sulfate, their lungs were removed immediately after their death to measure the weights. The lung-weight of the respective groups was compared to the lung-weight of the normal group, which received no ammonium sulfate. Based on the lung-weight measurements, the inhibitory rate of lung-weight increase of the group receiving test substance 1 as compared to that of the control group was calculated.

male Wistar rats [3] = assay: Water-immersion restraint stress induced ulcer model; assay type: in vivo, rat; settings: for Ulcer Coefficient: Mean ± S.E.
Procedure: (§1) Effects on acute ulcer was determined by means of water-immersion restraint stress induced ulcer model and indomethacin induced ulcer model.
(§2) Test substance 1 was orally administered to male Wistar rats (weight: 180-210 g) that had been fasted for 24 hours. In the water-immersion restraint stress induced ulcer model, 10 minutes after the oral administration of test substance 1, the rats were bound in a stress cage and immersed in water at 23° C. up to the level of their chest xiphisternums. Six hours after the immersion, the animals were killed by cervical dislocation. In the indomethacin induced ulcer model, immediately after the oral administration of test substance 1 or 2, indomethacin 10 mg/kg was orally administered. Five hours after the administration, the animals were killed by cervical dislocation. The stomachs removed from the animals were fixed with 1% formalin and then dissected along the greater curvatures. The major axis (mm) of each ulcer formed in the stomach was measured. The major axes of the ulcers in each animal were totaled, which were expressed as ulcer coefficients. Based on the ulcer coefficients of the control group and those of the groups receiving test substances, the ulcer inhibitory rates were calculated.

male Wistar rats [4] = assay: Indomethacin induced ulcer model; assay type: in vivo, rat; settings: for Ulcer Coefficient: Mean ± S.E.
Procedure: as §1, §2

male Wistar rats [5] = assay: Amount of bile and chloride ion concentration in bile in rats after repeated oral dosing; assay type: in vivo, rat; settings: 100 μg/kg oral three times a day for seven days, Mean ± S.E.
Procedure: Test substance 2: 13,14-dihydro-15-keto-16,16-difluoro-18(S)-methyl-prostaglandin E1, which is a ClC-2 channel opener was used. Test substance 2 of 100 μg/kg was orally administered to male Wistar rats (six weeks old, weight: 180-210 g) three times a day for seven days. The control group received the same amount of the vehicle (0.01% polysorbate 80 and 0.5% ethanol in distilled water). In the following morning of the final administration day (about 17 hours after the final administration), a polyethylene catheter (PE10, Becton Dickinson and Company) was inserted into the rats' common bile duct under ether anesthesia. The rats were placed in a Borrmann's cage and were left for 1 hour to awake from anesthesia. Bile discharged during one hour from one to two hours after the insertion of the catheter was collected to measure the amount of bile. Chloride ion concentration was measured with a chloride counter (CL-7, Hiranuma Sangyo Co., Ltd.). Student's t-test was used in comparing the control group and the group receiving test substance 2. P values less than 0.05 were considered to be statistically significant.

removed liver [6] = assay: Bile amount and chloride ion in bile of removed perfused rat liver; settings: 10 μM in Krebs-Ringer perfusate, 30 minutes, Mean ± S.E.
Procedure: Male Wistar rats were used. The common bile duct of both the test and the control groups were catheterized to collect bile under pentobarbital sodium anesthesia. After the catheter was inserted and fixed in the portal vein, Krebs-Ringer solution (pH 7.4, 37° C.) comprising sodium taurocolate (30 μmol/1) saturated with 95% O2 and 5% CO2 was infused at a constant flow rate of 4.0 mL/min/g liver weight by means of peristaltic pump. The liver was removed under perfusion. For the test group, test substance 2 was added to the Krebs-Ringer solution. Thirty minutes after the perfusion, the amount of bile of both the test group and the control group was measured. Chloride ion concentration in the bile was also measured. The amount of bile at 30 minutes after the administration of test substance 2 or vehicle was shown as relative value (%) to the amount immediately before the administration.

removed liver [7] = assay: Organ preservation: bile flow after 16-hour cold storage and reperfusion of rat liver; settings: 30 minutes after reperfusion, Mean ± S.D.
Procedure: Male Wistar rats (weight: about 280 g) were anesthetized with intraperitoneal injection of pentobarbital sodium (50 mg/kg) and hepatic-portal region was exposed by abdominal midline incision. The common bile duct was cannulated and the portal stem was inserted with a 19 gauge Surflo® needle equipped with a three way stopcock. […] The liver was cut off from the tissues around it, removed outside the body and subjected to extracorporeal perfusion. The liver was subjected to a 15-minute pre-perfusion until its oxygen consumption achieved to a constant state. Then the perfusate was replaced with an organ preservative solution (University of Wisconsin solution; (U-W solution) at 4° C. Immediately after the replacement was completed, the liver connected with the three-way stopcock was removed from the perfusion cycle and the inlet was clamped. Then the liver was put in the preservative solution (U-W solution) at the same temperature and stored for 16 hours. After the 16-hour storage, the liver was reperfused with Krebs-Ringer Buffer. Thirty minutes after the reperfusion, the amount of bile flow was measured. (1) Effect of substance 2 added to the organ preservative solution (U-W solution) In the above perfusion protocol, test substance 2 at the concentration of 10 μM was added to the preservative solution (U-W solution). […]

male Wistar rats [8] = assay: Mercuric chloride induced large intestinal ulcer; assay type: in vivo, rat; settings: for Gross Ulcer Area: 30 min before and 2 and 6 hours after HgCl2, Mean ± S.E.
Procedure: Mercuric chloride (HgCl2) of 4 mg/kg was intramuscularly administered to male Wistar rats (weight: 245-290 g) to induce ulcer in the large intestine. Thirty minutes before, and 2 and 6 hours after the administration of HgCl2, test substance 2 was subcutaneously administered. The control group received a vehicle. Twenty-four hours after the administration of HgCl2, the animals were bled to death under ether anesthesia. After abdominal incision, the upper portion of the ileocecal opening and the upper portion of the anus were ligated, and the large intestine region from the caecum to the rectum was removed. The removed large intestine was fixed with 1% formalin and then dissected, and the major and minor axes of ulcer were measured with a caliper under a stereoscopic microscope. The product of the major axis multiplied by the minor axis was expressed as the ulcer area. Further, the total ulcer area was calculated in each animal, which was expressed as the gross ulcer area.

male Wistar rats [9] = assay: Taurocholic acid and trypsin induced pancreatitis, serum amylase; assay type: in vivo, rat; settings: 100 μg/kg subcutaneous
Procedure: Male Wistar rats (weight: 240-270 g) that had been fasted overnight were subjected to abdominal incision under pentobarbital sodium anesthesia. Then a mixed solution of 10% taurocholic acid 3 mL and 0.3% trypsin solution 0.3 mL was antidroicly infused from the bile duct duodenum opening to induce pancreatitis. Thirty minutes before, and 2 and 4 hours after the infusion of the mixed solution of taurocholic acid and trypsin, test substance 2 was subcutaneously administered. The control group received the vehicle. Six hours after the infusion of the mixed solution of taurocholic acid and trypsin, the blood was collected to measure the serum amylase activity.

Beagle dogs = assay: Cardiac output in dog model of cardiac incompetence; assay type: in vivo; settings: 30 minutes after administration relative to immediately before, Mean ± S.E.
Procedure: Beagle dogs (weight: 8.8-10.3 kg) were used, and under thiopental sodium and α-chloralose anesthesia, their cardiac output was guided from a FJ probe equipped on the aortic arch via a rectangular wave electromagnetic blood flow meter (MFV-3100, Nihon Koden) to a blood flow-indicating unit and recorded in a recorder. The model of cardiac incompetence was prepared in accordance with the following method. A continuous infusion of lactate Ringer solution (5 mL/body/min) having dissolved therein DL-propranolol (0.06 mg/mL) from a catheter inserted into the left femoral vein started diastolic overload. Thirty minutes later, the left anterior descendence (LAD) was ligated. […] At the time the cardiac output was reduced by at least 20% from that before the diastolic overload, the dose of methoxamine was reduced to 5 μg/kg/min and the infusion of lactate Ringer solution was reduced to 3 mL/kg/min, which was continued until the completion of experiments. Sixty to 90 minutes after the cardiac output was reduced by at least 20% and other hemodynamic parameters were stabled, test substance 2 was administered via a cannula indwelled in the duodenum. The control group received a vehicle. […]

CCCCC(F)(F)C(=O)CC[C@H]1[C@H](O)CC(=O)[C@@H]1CCCCCCC(=O)O [Test Sub. 1, 13,14-dihydro-15-keto-16,16-difluoro-prostaglandin E1]
Amount of Intestinal Fluid (male Wistar rats [1]; 10 μg/kg oral): 3.3 ± 0.3 mL
Chloride Ion Concentration in Intestinal Fluid (male Wistar rats [1]; 10 μg/kg oral): 110.1 ± 5.6 mEq/L
Amount of Intestinal Fluid (male Wistar rats [1]; 100 μg/kg oral): 5.3 ± 0.2 mL
Chloride Ion Concentration in Intestinal Fluid (male Wistar rats [1]; 100 μg/kg oral): 126.6 ± 2.4 mEq/L
Chloride Ion Concentration in Lacrimal Fluid (male white rabbit): 152.9 ± 7.7^(##) mEq/L
Amount of Lacrimal Fluid (male white rabbit; Schirmer's Paper): 11.5 ± 0.7 mL
Duration of Gasping (ddY male mice): 24.1 ± 1.9
Inhibitory Rate of Lung-weight Increase (male Wistar rats [2]; 0.01 mg/kg subcutaneous, compared to control group): 47%
Surviving Rate (male Wistar rats [2]; 0.1 mg/kg subcutaneous, 30 minutes after ammonium sulfate): 60%
Ulcer Inhibitory Rate (male Wistar rats [3]; 30 μg/kg oral): 54.3%
Ulcer Coefficient (male Wistar rats [3]; 30 μg/kg oral): 13.4 ± 2.0
Ulcer Inhibitory Rate (male Wistar rats [3]; 100 μg/kg oral): 85.3%
Ulcer Coefficient (male Wistar rats [3]; 100 μg/kg oral): 4.3 ± 1.9
Ulcer Inhibitory Rate (male Wistar rats [4]; 2 μg/kg oral): 44%
Ulcer Coefficient (male Wistar rats [4]; 2 μg/kg oral): 27.9 ± 5.1

CC[C@H](C)CC(F)(F)C(=O)CC[C@H]1[C@H](O)CC(=O)[C@@H]1CCCCCCC(=O)O [Test Sub. 2, 13,14-dihydro-15-keto-16,16-difluoro-18(S)-methyl-prostaglandin E1]
Chloride Ion Concentration in Bile (male Wistar rats [5]): 98.4 ± 1.8 mEq/L
Amount of Bile (male Wistar rats [5]; bile collected during one hour): 492 ± 36.7 µL
Chloride Ion Concentration in Bile (removed liver [6]): 0.353 ± 0.009 μM/min/g liver
Relative Amount of Bile (removed liver [6]; relative to amount immediately before administration): 126.2 ± 9.0 %
Amount of Bile Flow (removed liver [7]; 10 μM added to the perfusate during reperfusion): 2.67 ± 0.31 μL/min/g liver
Amount of Bile Flow (removed liver [7]; 10 μM added to the preservative solution (U-W solution)): 2.43 ± 0.10 μL/min/g liver
Ulcer Inhibitory Rate (male Wistar rats [4]; 1 μg/kg oral): 58.7%
Ulcer Coefficient (male Wistar rats [4]; 1 μg/kg oral): 35.7 ± 8.3
Ulcer Inhibitory Rate (male Wistar rats [4]; 3 μg/kg oral): 65.3%
Ulcer Coefficient (male Wistar rats [4]; 3 μg/kg oral): 30.0 ± 4.6
Ulcer Inhibitory Rate (male Wistar rats [4]; 10 μg/kg oral): 77.2%
Ulcer Coefficient (male Wistar rats [4]; 10 μg/kg oral): 19.7 ± 4.8
Ulcer Inhibitory Rate (male Wistar rats [8]; 10 μg/kg subcutaneous): 54.3%
Gross Ulcer Area (male Wistar rats [8]; 10 μg/kg subcutaneous): 15.2 ± 15.8 mm^2
Ulcer Inhibitory Rate (male Wistar rats [8]; 1000 μg/kg subcutaneous): 85.3%
Gross Ulcer Area (male Wistar rats [8]; 1000 μg/kg subcutaneous): 3.7 ± 8.3** mm^2
serum amylase (male Wistar rats [9]; 30 min before and 2 and 4 hours after infusion, blood at six hours, Mean ± S.E.): 2430 ± 417 IU/L
Inhibitory Rate (male Wistar rats [9]; serum amylase): 22.6%
Relative Cardiac Output (Beagle dogs; 100 μg/kg intraduodenal): 108.7 ± 0.47 %
Relative Cardiac Output (Beagle dogs; 300 μg/kg intraduodenal): 117.8 ± 2.42 %
